From US20100254951A1, “Nerve Regeneration Promoting Agent” (MOCHIDA PHARMACEUTICAL CO., LTD., priority 2005, published 2010)

Tests used:
[1] = system: neural stem cells; experiment: Effect on proliferative activity of neural stem cells (BrdU incorporation); format: cell-based, rat; conditions: 10 μM BrdU, cultivation for 24 hours under differentiation induction; n=6; P=0.02 vs control
Procedure: In the same way as Experimental Example 1, neural stem cells were divided into DHA group and control (DHA free) group, and 10 μM 5-bromo-2′-droxyuridine (BrdU; Sigma) was added under culture conditions for differentiation induction, followed by cultivation for 24 hours. Thereafter, the cells were treated with 2N HCl at 37° C. for 10 minutes and treated with 0.1 M borate buffer (Na2B4O7, pH 8.5) for 5 minutes. The cell were treated with anti-mouse BrdU antibody (1:1000 Chemicon) and then treated with FITC-labeled secondary antibody.
7 random fields per well were sampled, and the numbers of BrdU-positive cells were counted to calculate a ratio of the number of BrdU-positive cells to the number of total cells. The number of total cells was counted by PI staining. Statistical analysis was evaluated by student's t-test.

[2] = system: neural stem cells and cells differentiated from neural stem cells; experiment: Effect on apoptosis of neural stem cells and cells differentiated from neural stem cells (pycnotic cells by PI staining, TUNEL); format: cell-based, rat; conditions: cultivated under differentiation induction for 7 days; n=6; P=0.01 vs control
Procedure: In the same way as Experimental Example 1, neural stem cells were divided into DHA group and control (DHA free) group and cultivated under culture conditions for differentiation induction for 7 days, and pycnotic cells were evaluated by PI staining.
Apoptosis in the pycnotic cells were confirmed by TUNEL staining. The TUNEL staining was performed using Red In Situ Apoptosis Detection kit (Chemicon). Cells of the DHA group and the control group were cultivated for 7 days under the above-mentioned differentiation conditions and fixed with 4% paraformaldehyde, followed by incubation together with digoxigenin-dUTP in the presence of TdT at 37° C. for 1 hour. TUNEL-labeled cells were detected with Rhodamine conjugated anti-digoxigenin antibody and observed using confocal scanning laser microscopy.

[3] = system: adult rat hippocampal dentate gyrus; experiment: Effect on neurogenesis in adult rat hippocampal dentate gyrus region (BrdU-NeuN double positive cells); format: in vivo; conditions: 300 mg/kg/day gavaged for 7 weeks
Procedure: 18-week-old Wister male rats fed with a fish oil-free diet for three generations were used. To DHA group, 4,7,10,13,16,19-docosahexaenoate suspended in a 5% gum arabic solution was gavaged at 300 mg/kg/day every day for 7 weeks. To control group, in the same way as above, only a 5% gum arabic solution was gavaged in the same dose. From 2 weeks after initiation of oral administration, BrdU dissolved in PBS (−) was injected to rats intraperitoneally once a day for 5 days (50 mg/kg).
4 weeks after completion of BrdU administration, PBS (−) was perfused from the hearts of the rats, followed by fixation with 4% paraformaldehyde. The brains were isolated and fixed with paraformaldehyde for further 24 hours, followed by exchange for 25% sucrose. Coronal sections (40 μm) were cut by a microtome, and nuclei labeled with BrdU were detected by the following procedures. […]
Six sections were selected at intervals of 240 μm from the rostro caudal region of a granular cell layer in the whole dentate gyrus, and BrdU-NeuN double positive cells in the granular cell layer and subgranular zone (inside zone along the granular cell layer) were counted. […] The referential volume of the granular cell layer was calculated from the areas of the sampled sections.

Which results are given for `CC/C=C\C/C=C\C/C=C\C/C=C\C/C=C\C/C=C\CCC(=O)O` [DHA, docosahexaenoic acid]?
ratio of BrdU-positive cells to the number of total cells [1]: 16.3±1.0%; ratio of the pycnotic cells to the number of total cells [2]: 54.3±3.7%; number of BrdU-NeuN double positive cells in the whole granular cell layer of the dentate gyrus compared to the control group ([3]; 18-week-old Wister male rats): 1.6 fold; average number of the BrdU-NeuN double positive cells in the respective sections ([3]; n=3, P=0.005 vs control): 878±72.3 cells
